Reference: patent US20250145606A1 (Arcus Biosciences, Inc., priority 2023, published 2025)
pIC50: −log10 of the molar value.

Experiments:
Conditions in all cases: biochemical, HTRF KinEASE-TK
[1] = molecular target: PDGFRβ (Homo sapiens (Human), UniProt P09619); assay: Inhibition of PDGFRβ kinase activity (HTRF KinEASE-TK)
Method: (§1) Inhibition of c-Kit, PDGFRα, PDGFRβ, CSFIR and FLT3 Kinase Activity
(§2) Compounds were evaluated to determine the potency with which they inhibit the kinase activity of the following panel of tyrosine kinases: c-Kit (SignalChem, Product #: K06-11BG), PDGFRα (SignalChem, Product #: P12-18G), PDGFRβ (SignalChem, Product #: P13-11G), CSFIR (SignalChem, Product #: C74-11G) and FLT3 (Invitrogen, Product #: PR4666C). Activity was determined as a function of phosphorylated biotinylated TK peptide generated by the transfer of phosphate from ATP as measured by the use of the HTRF KinEASE-TK assay kit (Cisbio, Product #: 62TKOPEJ). Levels of phosphorylated biotinylated TK peptide (Part 61TKOBLC of KinEASE assay kit) are quantified by its capture by phosphor-TK-Antibody-Cryptate (Part of KinEASE assay kit) and XL665-labeled Streptavidin (Part 610SAXLG of KinEASE assay kit) followed by measurement of Time-Resolved Fluorescence Resonance Energy Transfer (TR-FRET) signal. On the day of the assay, compounds were solubilized in DMSO and dispensed into a 384-well white Opti-plate (PerkinElmer, catalog #6007290) to generate a 22 point 1:2 titration. Enzyme solution was prepared for each of the tyrosine kinases in 50 mM HEPES, pH 7.4, 5 mM MgCl2 for c-Kit or 10 mM MgCl2 for FLT3, CSFIR, PDGFRa and PDGFRβ, 2 mM MnCl2, 0.01% Brij-35 and 0.01% BSA. Working enzyme concentrations were prepared for c-Kit at 2 nM (2×), PDGFRa and PDGFRß at 10 nM (2×), CSFIR at 2 nM (2×) and FLT3 at 0.4 nM (2×). Five microliters of enzyme dilution of each tyrosine kinase were added to their respective 384-well white Opti-plate pre-dispensed with compound and allowed to incubate for 1 h at rt. Utilizing the same enzyme buffer recipe, 2x substrate mixes were prepared for each enzyme as follows: For c-Kit, 1.6 μM (2×) TK substrate and 16 μM (2×) ATP (Promega, catalog #V915). For PDGFRα, 3.2 μM TK substrate and 1 μM ATP. For PDGFRβ, 3.2 μM TK substrate and 40 μM ATP. For CSFIR, […] TK substrate and 20 μM ATP. For FLT3, 3.2 μM TK substrate and 100 μM ATP. Reactions were initiated by addition of 5 μL of the respective 2x substrate mix to each well of the plates containing the respective tyrosine kinase enzymes and were allowed to proceed for 120 minutes at rt, except for FLT3, the reaction time is 45 min. Following the reaction, 10 μL of detection mix consisting of 0.2 μM (2×) of Streptavidin-XL665 and 2 μM (2×) of TK-Antibody-Cryptate prepared in detection buffer (Part 62SDBRDF of KinEASE assay kit) was added and then allowed to incubate for 60 min. The TR-FRET signal was quantified by measuring the ratio of emission at 665 nm to 620 nm after excitation at 320 nm by reading on a PerkinElmer Envision multimode reader. Compound potencies (IC50 values) were determined using a standard 4-parameter non-linear regression fit.

[2] = molecular target: c-Kit (Homo sapiens (Human), UniProt P10721); assay: Inhibition of c-Kit kinase activity (HTRF KinEASE-TK); assay type: biochemical
Method: as §1, §2

[3] = molecular target: CSF1R (Homo sapiens (Human), UniProt P07333); assay: Inhibition of CSF1R kinase activity (HTRF KinEASE-TK)
Method: as §1, §2

[4] = molecular target: PDGFRα (Homo sapiens (Human), UniProt P16234); assay: Inhibition of PDGFRα kinase activity (HTRF KinEASE-TK)
Method: as §1, §2

Chain of c-Kit (P10721 26-976): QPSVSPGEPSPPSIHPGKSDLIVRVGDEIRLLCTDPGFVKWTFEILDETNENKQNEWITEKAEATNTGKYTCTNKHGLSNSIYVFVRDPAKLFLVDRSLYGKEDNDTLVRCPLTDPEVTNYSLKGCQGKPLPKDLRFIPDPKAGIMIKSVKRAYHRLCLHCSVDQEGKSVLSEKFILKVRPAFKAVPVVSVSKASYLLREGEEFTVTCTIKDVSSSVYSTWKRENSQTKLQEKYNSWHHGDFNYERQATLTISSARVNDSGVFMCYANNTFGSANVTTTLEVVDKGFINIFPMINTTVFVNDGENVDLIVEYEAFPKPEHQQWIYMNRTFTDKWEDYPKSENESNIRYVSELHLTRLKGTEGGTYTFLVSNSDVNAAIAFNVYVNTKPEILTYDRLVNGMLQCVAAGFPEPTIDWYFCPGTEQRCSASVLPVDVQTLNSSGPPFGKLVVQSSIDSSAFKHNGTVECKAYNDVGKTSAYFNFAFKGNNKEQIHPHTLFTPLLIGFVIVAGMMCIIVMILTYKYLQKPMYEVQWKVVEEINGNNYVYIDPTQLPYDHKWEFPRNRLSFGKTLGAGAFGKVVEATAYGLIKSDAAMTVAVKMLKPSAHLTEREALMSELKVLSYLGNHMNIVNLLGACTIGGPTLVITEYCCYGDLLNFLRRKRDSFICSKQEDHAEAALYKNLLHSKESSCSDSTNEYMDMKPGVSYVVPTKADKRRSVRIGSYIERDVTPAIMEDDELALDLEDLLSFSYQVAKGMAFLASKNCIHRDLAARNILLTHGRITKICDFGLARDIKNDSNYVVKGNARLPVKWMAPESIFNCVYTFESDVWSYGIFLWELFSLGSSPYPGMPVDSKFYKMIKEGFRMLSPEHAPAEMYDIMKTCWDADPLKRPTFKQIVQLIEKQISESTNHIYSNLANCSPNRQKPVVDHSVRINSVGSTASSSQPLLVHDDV
Chain of PDGFRα (P16234 24-1089): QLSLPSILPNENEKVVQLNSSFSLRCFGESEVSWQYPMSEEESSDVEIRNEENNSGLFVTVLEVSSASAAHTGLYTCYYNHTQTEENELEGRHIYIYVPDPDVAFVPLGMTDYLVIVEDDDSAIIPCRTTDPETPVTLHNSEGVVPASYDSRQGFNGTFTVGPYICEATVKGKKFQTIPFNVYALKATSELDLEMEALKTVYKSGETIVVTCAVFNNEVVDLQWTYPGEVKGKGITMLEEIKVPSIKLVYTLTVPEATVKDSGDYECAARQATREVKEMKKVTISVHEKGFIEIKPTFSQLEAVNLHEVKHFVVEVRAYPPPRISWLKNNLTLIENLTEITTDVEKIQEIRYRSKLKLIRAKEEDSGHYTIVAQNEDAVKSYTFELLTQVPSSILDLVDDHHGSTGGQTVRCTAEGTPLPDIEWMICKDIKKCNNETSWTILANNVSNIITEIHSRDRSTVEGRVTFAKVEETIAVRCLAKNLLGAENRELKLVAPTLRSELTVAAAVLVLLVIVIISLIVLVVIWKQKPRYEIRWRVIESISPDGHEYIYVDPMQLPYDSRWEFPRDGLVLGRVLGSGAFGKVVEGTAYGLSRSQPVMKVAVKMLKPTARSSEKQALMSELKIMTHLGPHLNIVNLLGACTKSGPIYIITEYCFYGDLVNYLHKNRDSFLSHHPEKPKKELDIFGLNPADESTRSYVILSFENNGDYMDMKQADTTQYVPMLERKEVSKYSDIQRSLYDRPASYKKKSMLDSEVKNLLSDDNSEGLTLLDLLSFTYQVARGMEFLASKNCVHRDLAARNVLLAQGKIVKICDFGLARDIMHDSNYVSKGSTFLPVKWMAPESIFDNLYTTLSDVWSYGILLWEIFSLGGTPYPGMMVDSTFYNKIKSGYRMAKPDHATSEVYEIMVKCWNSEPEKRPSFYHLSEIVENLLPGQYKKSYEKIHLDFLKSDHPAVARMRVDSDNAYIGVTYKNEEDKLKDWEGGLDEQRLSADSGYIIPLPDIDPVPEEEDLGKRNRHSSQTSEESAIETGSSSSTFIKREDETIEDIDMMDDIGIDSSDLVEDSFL
Chain of PDGFRβ (P09619 33-1106): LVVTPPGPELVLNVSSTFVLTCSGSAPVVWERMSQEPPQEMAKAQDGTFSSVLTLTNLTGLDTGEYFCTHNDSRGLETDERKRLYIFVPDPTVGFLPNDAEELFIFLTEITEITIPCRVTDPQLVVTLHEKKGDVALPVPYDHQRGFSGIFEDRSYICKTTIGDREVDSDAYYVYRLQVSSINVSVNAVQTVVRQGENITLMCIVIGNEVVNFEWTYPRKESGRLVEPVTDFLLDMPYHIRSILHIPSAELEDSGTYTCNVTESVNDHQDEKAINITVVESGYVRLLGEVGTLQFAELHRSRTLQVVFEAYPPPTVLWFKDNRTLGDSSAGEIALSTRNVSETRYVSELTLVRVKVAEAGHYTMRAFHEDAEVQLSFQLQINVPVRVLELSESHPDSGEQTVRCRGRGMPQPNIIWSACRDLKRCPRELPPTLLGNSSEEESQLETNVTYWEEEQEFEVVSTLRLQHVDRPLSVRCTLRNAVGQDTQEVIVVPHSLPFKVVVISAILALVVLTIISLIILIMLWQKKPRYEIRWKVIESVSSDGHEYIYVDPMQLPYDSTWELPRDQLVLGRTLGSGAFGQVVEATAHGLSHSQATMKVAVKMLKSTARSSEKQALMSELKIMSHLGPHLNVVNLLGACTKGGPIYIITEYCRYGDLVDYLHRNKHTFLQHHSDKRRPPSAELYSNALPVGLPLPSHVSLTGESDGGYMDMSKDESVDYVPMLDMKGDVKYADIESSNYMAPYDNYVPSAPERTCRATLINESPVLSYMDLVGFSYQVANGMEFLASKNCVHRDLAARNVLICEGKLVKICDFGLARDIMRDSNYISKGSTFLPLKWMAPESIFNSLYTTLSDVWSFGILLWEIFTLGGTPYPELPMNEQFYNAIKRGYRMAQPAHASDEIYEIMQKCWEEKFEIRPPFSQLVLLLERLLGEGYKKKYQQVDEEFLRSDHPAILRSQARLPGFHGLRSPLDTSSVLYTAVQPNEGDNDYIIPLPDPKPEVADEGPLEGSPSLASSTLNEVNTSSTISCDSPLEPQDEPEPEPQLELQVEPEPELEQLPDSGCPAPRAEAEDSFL
Chain of CSF1R (P07333 20-972): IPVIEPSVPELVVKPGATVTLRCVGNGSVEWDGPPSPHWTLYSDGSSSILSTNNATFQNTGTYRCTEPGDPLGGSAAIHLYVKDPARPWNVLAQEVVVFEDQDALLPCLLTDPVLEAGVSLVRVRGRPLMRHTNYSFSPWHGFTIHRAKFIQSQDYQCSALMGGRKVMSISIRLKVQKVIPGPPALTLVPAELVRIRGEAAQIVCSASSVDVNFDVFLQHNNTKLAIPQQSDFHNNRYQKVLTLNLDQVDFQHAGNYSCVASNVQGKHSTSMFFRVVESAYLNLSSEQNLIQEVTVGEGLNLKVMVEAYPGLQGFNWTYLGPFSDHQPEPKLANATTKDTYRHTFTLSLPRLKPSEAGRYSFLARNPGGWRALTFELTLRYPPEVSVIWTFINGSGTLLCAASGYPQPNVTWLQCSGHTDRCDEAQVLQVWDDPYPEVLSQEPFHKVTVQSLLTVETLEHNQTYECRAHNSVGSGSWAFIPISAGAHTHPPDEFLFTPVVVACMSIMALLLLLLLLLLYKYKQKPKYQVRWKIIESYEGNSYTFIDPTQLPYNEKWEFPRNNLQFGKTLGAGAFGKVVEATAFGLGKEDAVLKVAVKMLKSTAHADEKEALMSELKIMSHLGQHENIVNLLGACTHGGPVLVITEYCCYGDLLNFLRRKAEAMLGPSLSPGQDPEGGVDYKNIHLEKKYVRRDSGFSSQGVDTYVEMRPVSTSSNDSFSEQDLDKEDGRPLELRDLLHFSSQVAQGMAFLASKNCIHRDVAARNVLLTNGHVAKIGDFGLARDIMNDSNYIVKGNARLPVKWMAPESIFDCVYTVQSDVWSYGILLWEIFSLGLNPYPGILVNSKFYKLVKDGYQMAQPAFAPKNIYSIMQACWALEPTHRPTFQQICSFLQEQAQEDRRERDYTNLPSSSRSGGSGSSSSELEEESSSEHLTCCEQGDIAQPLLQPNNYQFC

Structure (SMILES) | pIC50 [1] | pIC50 [2] | pIC50 [3] | pIC50 [4]
Cc1cc(F)c(C(=O)Nc2cc3c(cn2)COC3)cc1NC(=O)c1cnc(N)s1 [Example 112, 2-Amino-N-[5-(1,3-dihydrofuro [3,4-c]pyridin-6-ylcarbamoyl)-4-fluoro-2-methylphenyl]-1,3-thiazole-5-carboxamide] | 6.00 to 7.00 | > 7.00 | 6.00 to 7.00 | < 6.00
Cc1cc(F)c(C(=O)Nc2nnc(C3CC3)[nH]2)cc1NC(=O)c1cnc(N)s1 [Example 176, 2-Amino-N-[5-[(5-cyclopropyl-4H-1,2,4-triazol-3-yl)carbamoyl]-4-fluoro-2-methylphenyl]-1,3-thiazole-5-carboxamide] | < 6.00 | 6.00 to 7.00 | < 6.00 | < 6.00
Cc1cc(F)c(C(=O)Nc2ccc(OC3CC3)cn2)cc1NC(=O)c1cnc(C2CC2)s1 [Example 60, 2-Cyclopropyl-N-[5-[(5-cyclopropyloxypyridin-2-yl)carbamoyl]-4-fluoro-2-methylphenyl]-1,3-thiazole-5-carboxamide] | < 6.00 | 6.00 to 7.00 | < 6.00 | < 6.00
Cc1cc(F)c(C(=O)Nc2ccn(CC(C)(C)O)n2)cc1NC(=O)c1cnc(N)s1 [Example 153, 2-Amino-N-[4-fluoro-5-[[1-(2-hydroxy-2-methylpropyl)pyrazol-3-yl]carbamoyl]-2-methylphenyl]-1,3-thiazole-5-carboxamide] | < 6.00 | > 7.00 | < 6.00 | < 6.00
Cc1cc(F)c(C(=O)Nc2nc3c(s2)COCC3)cc1NC(=O)c1cnc(N)s1 [Example 145, 2-Amino-N-[5-(6,7-dihydro-4H-pyrano[4,3-d][1,3]thiazol-2-ylcarbamoyl)-4-fluoro-2-methylphenyl]-1,3-thiazole-5-carboxamide] | 6.00 to 7.00 | > 7.00 | 6.00 to 7.00 | < 6.00
Cc1cc(F)c(C(=O)Nc2cc(C3CC3)ccn2)cc1NC(=O)c1cnc(N)s1 [Example 190, 2-Amino-N-[5-[(4-cyclopropylpyridin-2-yl)carbamoyl]-4-fluoro-2-methylphenyl]-1,3-thiazole-5-carboxamide] | > 7.00 | > 7.00 | > 7.00 | > 7.00
Cc1cc(F)c(C(=O)Nc2ccc(OC3CC3)cn2)cc1NC(=O)c1cnc(NC(=O)[C@H]2CCOC2)s1 [Example 108, N-[5-[(5-cyclopropyloxypyridin-2-yl)carbamoyl]-4-fluoro-2-methylphenyl]-2-[[(3S)-oxolane-3-carbonyl]amino]-1,3-thiazole-5-carboxamide] | < 6.00 | > 7.00 | < 6.00 | < 6.00
Cc1cc(F)c(C(=O)Nc2ccc3c(c2)C(C)(C)C(=O)N3)cc1NC(=O)c1cnc(N)s1 [Example 184, 2-Amino-N-[5-[(3,3-dimethyl-2-oxo-1H-indol-5-yl)carbamoyl]-4-fluoro-2-methylphenyl]-1,3-thiazole-5-carboxamide] | > 7.00 | > 7.00 | 6.00 to 7.00 | > 7.00
CCc1cc(F)c(C(=O)Nc2ccc(OC3CC3)cn2)cc1NC(=O)c1cnc(N)s1 [Example 237, 2-Amino-N-[5-[(5-cyclopropyloxypyridin-2-yl)carbamoyl]-2-ethyl-4-fluorophenyl]-1,3-thiazole-5-carboxamide] | < 6.00 | 6.00 to 7.00 | < 6.00 | < 6.00
Cc1ncc(C(=O)Nc2cc(C(=O)Nc3ccc(C4CC4)nn3)c(F)cc2C)s1 [Example 35, N-[5-[(6-cyclopropylpyridazin-3-yl)carbamoyl]-4-fluoro-2-methylphenyl]-2-methyl-1,3-thiazole-5-carboxamide] | < 6.00 | > 7.00 | < 6.00 | < 6.00
Cc1ncc(C(=O)Nc2cc(C(=O)Nc3cnc(C4CC4)cn3)c(F)cc2C)s1 [Example 43, N-[5-[(5-cyclopropylpyrazin-2-yl)carbamoyl]-4-fluoro-2-methylphenyl]-2-methyl-1,3-thiazole-5-carboxamide] | < 6.00 | > 7.00 | < 6.00 | < 6.00
Cc1cc(F)c(C(=O)Nc2ccn(C(C)(C)C)n2)cc1NC(=O)c1cnc(N)s1 [Example 141, 2-Amino-N-[5-[(1-tert-butylpyrazol-3-yl)carbamoyl]-4-fluoro-2-methylphenyl]-1,3-thiazole-5-carboxamide] | > 7.00 | > 7.00 | 6.00 to 7.00 | > 7.00
Cc1cc(F)c(C(=O)Nc2cc(C(F)(F)F)ccn2)cc1NC(=O)c1cnc(N)s1 [Example 178, 2-Amino-N-[4-fluoro-2-methyl-5-[[4-(trifluoromethyl)pyridin-2-yl]carbamoyl]phenyl]-1,3-thiazole-5-carboxamide] | > 7.00 | > 7.00 | > 7.00 | > 7.00
Cc1cc(F)c(C(=O)Nc2ccc(CN3CCN(C)CC3)cn2)cc1NC(=O)c1cnc(N)s1 [Example 247, 2-Amino-N-[4-fluoro-2-methyl-5-[[5-[(4-methylpiperazin-1-yl)methyl]pyridin-2-yl]carbamoyl]phenyl]-1,3-thiazole-5-carboxamide] | 6.00 to 7.00 | > 7.00 | 6.00 to 7.00 | < 6.00
Cc1cc(F)c(C(=O)Nc2cc3n(n2)CCN(C)C3)cc1NC(=O)c1cnc(N)s1 [Example 180, 2-Amino-N-[4-fluoro-2-methyl-5-[(5-methyl-6,7-dihydro-4H-pyrazolo[1,5-a]pyrazin-2-yl)carbamoyl]phenyl]-1,3-thiazole-5-carboxamide] | < 6.00 | > 7.00 | < 6.00 | < 6.00
Cc1ncc(C(=O)Nc2cc(C(=O)NCC3(F)CCC3)c(F)cc2C)s1 [Example 68, N-[4-Fluoro-5-[(1-fluorocyclobutyl)methylcarbamoyl]-2-methylphenyl]-2-methyl-1,3-thiazole-5-carboxamide] | < 6.00 | 6.00 to 7.00 | < 6.00 | < 6.00
Cc1c(F)cc(C(=O)Nc2ccc(OC3CC3)cn2)cc1NC(=O)c1cnc(N)s1 [Example 243, 2-Amino-N-[5-[(5-cyclopropyloxypyridin-2-yl)carbamoyl]-3-fluoro-2-methylphenyl]-1,3-thiazole-5-carboxamide] | > 7.00 | > 7.00 | > 7.00 | > 7.00
Cc1cc(F)c(C(=O)N[C@H]2C[C@@H](C#N)C2)cc1NC(=O)c1cnc(N)s1 [Example 126, 2-Amino-N-[5-[(3-cyanocyclobutyl)carbamoyl]-4-fluoro-2-methylphenyl]-1,3-thiazole-5-carboxamide] | < 6.00 | > 7.00 | < 6.00 | 6.00 to 7.00
Cc1cc(F)c(C(=O)N[C@H]2C[C@@H](C(N)=O)C2)cc1NC(=O)c1cnc(N)s1 [Example 127, 2-Amino-N-[5-[(3-carbamoylcyclobutyl)carbamoyl]-4-fluoro-2-methylphenyl]-1,3-thiazole-5-carboxamide] | < 6.00 | 6.00 to 7.00 | < 6.00 | < 6.00
